According to PubChem BioAssay AID1996:
Values after ≈ are worked out from the molar mass of the structure shown.

Conditions: buffer; pH 7.4; 200.0 µM

Row | Structure (SMILES) | solubility kinetic
1 | COCCOn1c(SCCOC)nc2ccccc2c1=O | > 46.6 µg/mL
2 | O=C(O)c1ccccc1C(=O)NCCc1ccc(Cl)cc1 | 43.3 µg/mL (≈ 143 µM)
3 | CSc1ccccc1NC(=O)c1ccccn1 | 29.8 µg/mL (≈ 122 µM)
4 | CCn1c(SCc2nc3ccccc3c(=O)[nH]2)nc2ccccc21 | 1.1 µg/mL (≈ 3.27 µM)
5 | O=C(OC(C(=O)c1c[nH]c2ccccc12)c1ccccc1)c1cnccn1 (centres undefined) | 47 µg/mL (≈ 132 µM)
6 | O=C1NC(=O)C(Sc2ccccc2[N+](=O)[O-])C(=O)N1 | > 42.2 µg/mL
7 | O=C(COC(=O)c1ccc(Cl)nc1)Nc1ccc2c(c1)OCCO2 | 4.8 µg/mL (≈ 13.8 µM)
8 | O=C(NC1CCOc2ccccc21)c1ccc(=O)[nH]c1 (centres undefined) | > 40.5 µg/mL
9 | COc1ccc(NC(=O)C2C3CCC(O3)C2C(=O)O)cc1OC (centres undefined) | > 48.2 µg/mL
10 | CCOc1ccc(N(C(C)C(=O)N2CCCC2)S(C)(=O)=O)cc1 (centres undefined) | > 51.1 µg/mL
11 | O=C(CC1C(=O)NCCN1Cc1cccc(F)c1)NC1CCC1 (centres undefined) | 42 µg/mL (≈ 132 µM)
12 | CN(CC(=O)Nc1ccc(Cl)cc1)C(=O)Cc1c(F)cccc1Cl | 14.6 µg/mL (≈ 39.5 µM)
13 | CCS(=O)(=O)NCCc1csc(-c2ccc(OC)c(OC)c2)n1 | 53.2 µg/mL (≈ 149 µM)
14 | Clc1ncn(CCOc2ccccc2)c1Cl | 38.2 µg/mL (≈ 149 µM)
15 | CN(C)c1cccc(C(=O)N/C=C/n2cnc3cc(C(F)(F)F)ccc32)c1 | 0.4 µg/mL (≈ 1.07 µM)
16 | O=C1CSC(c2ccccc2O)N1Cc1ccccc1 (centres undefined) | > 42.8 µg/mL
17 | NS(=O)(=O)c1ccc(CNC(=O)c2ccc3c(c2)OCO3)cc1 | > 50.2 µg/mL
18 | CC(=O)C1=C(O)C(=O)N(Cc2ccco2)C1c1cccc(F)c1 (centres undefined) | > 47.3 µg/mL
19 | CCc1ccccc1Nc1ncnc2ccccc12.Cl | > 42.9 µg/mL
20 | CN(C)CCN=Cc1c(O)n(Cc2ccc3c(c2)OCO3)c(=O)c2ccccc12 | 16.3 µg/mL (≈ 41.4 µM)
21 | Oc1ccc(N2CCN(Cc3nc4ccccc4[nH]3)CC2)cc1 | > 46.3 µg/mL
22 | Cn1cccc1C(=O)OCC(=O)NCc1cccs1 | > 41.7 µg/mL
23 | O=C(Nc1cccc(C(=O)Nc2ccccc2C(=O)O)c1)c1cccc(Cl)c1 | > 59.2 µg/mL
24 | CC(=O)C(Cc1ccccc1)NC(=O)CN1CCc2ccccc2C1 (centres undefined) | > 50.5 µg/mL

Row | Structure (SMILES) | solubility kinetic
25 | CCCN1CNc2c(c(=O)[nH]c(=S)n2CCc2ccccc2)C1 | 1.7 µg/mL (≈ 5.14 µM)
26 | Cc1ccc(Cl)cc1NC(=O)COC(=O)CSc1ccccc1 | 7.2 µg/mL (≈ 20.6 µM)
27 | CCCc1nc(-c2cc3ccccc3[nH]c2=O)no1 | > 38.3 µg/mL
28 | O=c1[nH]c(O)c(C=NCCc2ccccc2)c(=O)[nH]1 | 3.6 µg/mL (≈ 13.9 µM)
29 | CCOc1ccc(S(=O)(=O)NCCc2ccccn2)cc1 | > 46 µg/mL
30 | O=C(NCc1ccc(Cl)cc1)[C@@H]1CCCN1S(=O)(=O)c1ccc(Cl)cc1 | 31.3 µg/mL (≈ 75.7 µM)
31 | COc1ccccc1-c1c(C#N)c(N)nc2c1CCC2 | 5 µg/mL (≈ 18.8 µM)
32 | O=C(Nc1nccs1)C1=COCCO1 | > 31.8 µg/mL
33 | O=C(CCCc1ccccc1)NCCc1ccccc1 | 29.3 µg/mL (≈ 110 µM)
34 | O=C(OCC(=O)N1CCc2ccccc21)[C@@H]1CC(O)CN1S(=O)(=O)c1ccccc1[N+](=O)[O-] (some centres undefined) | 20.4 µg/mL (≈ 42.9 µM)
35 | Cc1csc(SCC(=O)NC2CCS(=O)(=O)C2)n1 (centres undefined) | > 46 µg/mL
36 | O=C1NC(=S)N(C(=O)c2ccc(F)cc2)/C1=C/c1cccnc1 | 2 µg/mL (≈ 6.11 µM)
37 | O=C(OCC(=O)N1CCOCC1)c1ccc2ccccc2c1O | 28.2 µg/mL (≈ 89.4 µM)
38 | CCOc1ccc(/C=C/c2nc(C#N)c(NCCCOC)o2)cc1 | 3.4 µg/mL (≈ 10.4 µM)
39 | O=C(O)COCC(=O)NCc1csc2ccc(Cl)cc12 | > 47.1 µg/mL
40 | CC(=O)N(Cc1ccc(Cl)cc1)c1cnccn1 | > 39.3 µg/mL
41 | O=[N+]([O-])c1ccc(CN2CCN(c3ccccc3)CC2)o1 | 14.5 µg/mL (≈ 50.5 µM)
42 | CC(=O)Nc1ccc(NC(=O)c2cccc(S(=O)(=O)N3CCCCCC3)c2)cc1 | 5.3 µg/mL (≈ 12.8 µM)
43 | CC(=O)N1N=C2C3CCN(CC3)C2C1c1ccc(F)cc1 (centres undefined) | > 43.1 µg/mL
44 | Cc1ccc(C)c(NC(=S)N(C)CCO)c1 | > 35.8 µg/mL
45 | Cl.NC(Cc1ccccc1)Cc1ccccc1 | > 37.2 µg/mL
46 | COc1ccc(CCNC2CC(=O)N(C3CCCCC3)C2=O)cc1OC (centres undefined) | 46.4 µg/mL (≈ 129 µM)
47 | Cc1ccc(NC(=O)N2CCCCCC2)cc1C | > 37 µg/mL
48 | Cc1ccc(NC(=O)CN(C)Cc2c(O)ccc3ccccc23)cc1 | 23.7 µg/mL (≈ 70.9 µM)

Row | Structure (SMILES) | solubility kinetic
49 | CCC(=O)Nc1ccc2nc3c(=O)[nH]c(=S)[nH]c3nc2c1 | > 45.2 µg/mL
50 | COc1ccc(CC(=O)NC(=S)Nc2cccc(C)c2)cc1 | 4 µg/mL (≈ 12.7 µM)
51 | O=S(=O)(NCC1COc2ccccc2O1)c1ccccc1F (centres undefined) | > 48.5 µg/mL
52 | Cn1c(=S)[nH]c2sc3c(c2c1=O)CCC(C(C)(C)C)C3 (centres undefined) | < 0.3 µg/mL
53 | O=C(COc1ccc2c(c1)OCO2)Nc1nccs1 | 20.9 µg/mL (≈ 75.1 µM)
54 | Cc1cc(C(=O)OCC(=O)NC2(C#N)CCCCC2)c(C)o1 | > 45.7 µg/mL
55 | O=C1CCC(=O)N1CCSC(=S)N1CCOCC1 | > 43.3 µg/mL
56 | Cc1cc(OC(=O)c2cccc(Cl)c2)c([N+](=O)[O-])c(=O)[nH]1 | 40.9 µg/mL (≈ 133 µM)
57 | Cc1cccc(NC(=O)N2CCCCCC2)c1 | > 34.8 µg/mL
58 | Cc1[nH]c2ccccc2c1-c1nc2ccccc2[nH]c1=O | 1.3 µg/mL (≈ 4.72 µM)
59 | Cc1cc(C)c(OCCOCCN2CCCC2)c(C)c1 | 30.2 µg/mL (≈ 109 µM)
60 | Cc1onc(-c2ccccc2Cl)c1C(=O)N1CCCC1 | > 43.6 µg/mL
61 | CCc1nc(Nc2ccc(F)cc2)c2oc3ccccc3c2n1.Cl | 0.8 µg/mL
62 | Cc1cccc(C)c1NC(=O)COC(=O)c1cc[n+]([O-])cc1 | > 45 µg/mL
63 | CCN(CC)C(=O)c1cccc2c1-c1ccccc1C2=O | 41.5 µg/mL (≈ 149 µM)
64 | NS(=O)(=O)c1ccc(NC(=O)/C=C/c2ccco2)cc1 | 36.3 µg/mL (≈ 124 µM)
65 | Cc1cccc(C)c1NC(=O)CNC(=O)c1ccccc1 | 24.9 µg/mL (≈ 88.2 µM)
66 | Cc1ccc(N=C2CSC(=O)N2)cc1 | 23.4 µg/mL (≈ 113 µM)
67 | O=C1CC(=O)N(c2ccccc2)C(=O)N1c1ccccc1 | > 42 µg/mL
68 | CC(C)NC(=O)c1ccc2c(=O)n(CC3CCCO3)c(=S)[nH]c2c1 (centres undefined) | 4.4 µg/mL (≈ 12.7 µM)
69 | CCN(CC)c1nc(N2CCN(C)CC2)nc2ccccc12.Cl | 50.1 µg/mL
70 | Cc1cccc(OCC(=O)Nc2ccc3c(c2)C(=O)NC3=O)c1 | 1.3 µg/mL (≈ 4.19 µM)
71 | COc1ccc(CC(=O)NCC2CCCCC2)cc1OC | > 43.7 µg/mL
72 | COc1cc([N+](=O)[O-])ccc1NC(=O)CN1CCc2cc(OC)c(OC)cc2C1 | 34.1 µg/mL (≈ 84.9 µM)

Row | Structure (SMILES) | solubility kinetic
73 | Cc1cc(NCCOCCO)n2c(nc3ccccc32)c1C#N | > 46.6 µg/mL
74 | CC(C)(C)c1ccc(OCC(=O)Nc2ccncc2)c(Br)c1 | 10.4 µg/mL (≈ 28.6 µM)
75 | CC(C)(C)c1ccc(N=C2SCC(=O)N2Cc2cccs2)cc1 | 0.4 µg/mL (≈ 1.16 µM)
76 | Cc1c(C(=O)N/N=C/c2ccoc2)cccc1[N+](=O)[O-] | > 41 µg/mL
77 | NC(=O)c1c(NC(=O)c2ccccc2F)sc2c1CCCC2 | 3 µg/mL (≈ 9.42 µM)
78 | Cc1ccc(CN2C(=O)CNC2=S)cc1 | > 33 µg/mL
79 | O=c1onc(-c2c(F)cccc2F)n1-c1ccccc1Cl | 1 µg/mL (≈ 3.24 µM)
80 | Cc1ccsc1-c1cc(C(=O)O)c2c(ccc3ccccc32)n1 | > 47.9 µg/mL
81 | OCCN(CC#CCC(O)(c1ccccc1)C1CCCC1)CCO (centres undefined) | > 49.7 µg/mL
82 | COc1ccc(N(C)C(=S)Nc2ccc3nc(C)c(C)nc3c2)cc1 | 4.1 µg/mL (≈ 11.6 µM)
83 | CC(=O)c1ccc(NC(=O)COC(=O)/C=C/c2cccs2)cc1 | 7.3 µg/mL (≈ 22.2 µM)
84 | O=C1NC(=S)NC(=O)C1=Cc1ccc(OCC(=O)N2CCCC2)cc1 | 51.8 µg/mL (≈ 144 µM)
85 | CC(=O)Nc1ccc(NS(=O)(=O)c2cc([N+](=O)[O-])ccc2C)cc1 | 2.6 µg/mL (≈ 7.44 µM)
86 | Cc1cc(SCc2c(F)cccc2Cl)nc(=O)[nH]1 | 39.2 µg/mL (≈ 138 µM)
87 | Cc1nc(SCc2cccnc2)[nH]c(=O)c1C | > 37.1 µg/mL
88 | CN(C(=O)Cn1nc(C(=O)O)c2ccccc2c1=O)C1CCCCC1 | > 51.5 µg/mL
89 | COC(=O)c1ccc(NC(=O)CCCN2C(=O)NC(C)(C)C2=O)cc1 | > 52.1 µg/mL
90 | Cc1ccc(F)c(NC(=O)c2c(-c3ccccc3)noc2C)c1 | 2.2 µg/mL (≈ 7.09 µM)
91 | COc1ccccc1NC(=O)N1CCC(c2nc3ccccc3o2)CC1 | 44.9 µg/mL (≈ 128 µM)
92 | COc1cc2[nH]c(=S)n(Cc3ccc(C)cc3)c(=O)c2cc1OC | < 0.4 µg/mL
93 | Fc1ccc2nc3c(nc2c1)CCCC3 | 13.3 µg/mL (≈ 65.8 µM)
94 | CC(=O)Nc1ccc(Oc2ccccc2)cc1 | 33.6 µg/mL (≈ 148 µM)
95 | N/C(=N\S(=O)(=O)c1cccs1)c1ccccc1Cl | > 45.1 µg/mL
96 | O=C(c1ccccc1)N1CCN(C(=O)c2ccc3c(c2)OCO3)CC1 | > 50.8 µg/mL

Row | Structure (SMILES) | solubility kinetic
97 | Cl.O=C(COc1ccc(Br)cc1)NCCN1CCCC1 | 51.8 µg/mL
98 | O=C(c1cccc([N+](=O)[O-])c1)N1CCN(Cc2ccccc2)CC1 | > 48.8 µg/mL
99 | CC(=O)Nc1ccc(NC(=O)c2ccc(-c3ccccc3Cl)o2)cc1 | 0.5 µg/mL (≈ 1.41 µM)
100 | Cc1ncc([N+](=O)[O-])n1CC(=O)N/N=C/c1ccccc1F | > 45.8 µg/mL
101 | Nc1nc(SCC(=O)N2CCCC2)[nH]c(=O)c1NC(=O)c1cccs1 | > 56.9 µg/mL
102 | COc1ccc(CCNC(=O)c2oc3ccc(OC)cc3c2C)cc1 | 2.3 µg/mL (≈ 6.78 µM)
103 | CCOC(=O)N1CCN(C(=O)COC(=O)c2cc(C)ccc2C)CC1 | > 52.3 µg/mL
104 | Clc1cccc(CNc2nc(-c3cccnc3)nc3ccccc23)c1 | 0.5 µg/mL (≈ 1.44 µM)
105 | CC(=O)Nc1ccc(NC(=O)C2CC(=O)N(C(C)C)C2)cc1 (centres undefined) | 43.4 µg/mL (≈ 143 µM)
106 | CCN(C(=O)c1ccc(Br)o1)C1CCS(=O)(=O)C1 (centres undefined) | > 50.4 µg/mL
107 | O=[N+]([O-])c1ccc(NCc2ccc(Cl)cc2)c2ccncc12 | 0.3 µg/mL (≈ 0.956 µM)
108 | Cc1cc([N+](=O)[O-])cc2c1NC(=O)C2(O)N1CCCC(C)C1 (centres undefined) | 28.3 µg/mL (≈ 92.7 µM)
109 | Cc1ccc(NC(=O)NCc2cccnc2)cc1Cl | 39.7 µg/mL (≈ 144 µM)
110 | COc1cc(OC)cc(C(=O)Nc2ccc(C(=O)Nc3ccccc3OC)cc2)c1 | 6.4 µg/mL (≈ 15.7 µM)
111 | O=C(CCc1ccccc1)NC1C2CC3CC(C2)CC1C3 (centres undefined) | 34.6 µg/mL (≈ 122 µM)
112 | COc1ccc(NS(=O)(=O)c2cn(C)cn2)cc1OC | 32.9 µg/mL (≈ 111 µM)
113 | CC(C)C[C@H](NC(=O)NC1CCCc2ccccc21)C(=O)O (some centres undefined) | > 45.7 µg/mL
114 | Oc1ccc(N=Cc2c(O)ccc3ccccc23)cc1 | < 0.6 µg/mL
115 | COc1ccc(C(=O)C(C)OC(=O)CNC(=O)C2CCCCC2)cc1 (centres undefined) | > 52.1 µg/mL
116 | O=C(NCCc1ccccc1)C(=O)Nc1ccc2c(c1)OCCO2 | < 0.3 µg/mL
117 | CC(=O)c1ccc(OCCOc2ccc(C#N)cc2)cc1 | 6.8 µg/mL (≈ 24.2 µM)
118 | CCOc1ccc(NC(=O)COC(=O)CC2CC3CCC2C3)cc1 (centres undefined) | 16.9 µg/mL (≈ 51 µM)
119 | CC(=O)O.NCC(c1ccco1)c1c[nH]c2ccccc12 (centres undefined) | 21.5 µg/mL
